According to patent publication US7491793B2 (priority 2003, dated 2009):

Test system: Lassa virus (Josiah strain)
Type: cell-based

With GWTFWTLSDSEGKDTPGGY [SEQ ID NO:31] the “inhibition of plaque formation by LasV” value was “inhibited infection by LasV, but to a lesser extent”.
For NYSKYWYLNHTTTGR [SEQ ID NO:30], the “inhibition of plaque formation by LasV” value was “can inhibit plaque formation by LasV”.
